SMILES	melting point [°C]
NS(=O)(=O)c1ccc(-n2nc(C(F)(F)F)cc2-c2ccc(-c3cscn3)c(Cl)c2)cc1F	173 to 175
Cc1cccc(C(=O)NO)c1N(C)S(=O)(=O)c1ccc(OCCCCNC(=O)c2cc3ccccc3o2)cc1	131 to 134
CCCc1c(OCc2ccc(C(=O)O)cc2OCC)ccc(C(C)=O)c1O	152 to 153
CCCc1cc(NCc2ccc3c(c2)OCO3)nc(SCC#N)n1	92 to 94
CCCCOc1ccc(CC(=O)N[C@@H](C(=O)OCc2ccccc2)[C@@H](C)O)cc1	80 to 83
COc1ccc(Cn2c(S)nc3ccccc32)cc1	199 to 200
Cc1oc(-c2ccccc2)nc1COc1ccc(Cn2cc(CCC(=O)O)c(Oc3ccc(C(F)(F)F)cn3)n2)cc1	107 to 108
COC(=C1C2CC3CC1CC(Cl)(C3)C2)c1cc(O)cc(Cl)c1	130
COc1cc(C(C)C)c2c(c1)S(=O)(=O)N(COC(=O)c1cccs1)C2=O	139 to 141
CNC(=NC#N)NCCSCc1csc(NC(=S)NCC(F)(F)F)n1	157 to 158
CC(C)CCCC(C)NC1=NS(=O)(=O)c2cc(Cl)ccc2N1 (stereo unspecified)	> 220
CC(C)C(=O)NCc1cccc(-c2nc(=O)c3ccccc3s2)n1	189
CC(C)(C)c1ccc(C[C@@H](NC(=O)c2ccc(F)c3ccccc23)[C@@H](O)c2ccc(F)cc2)cc1 (racemic)	149 to 150
Cc1c(F)c(N2CCNCC2)c(F)c2c1c(=O)c(C(=O)O)cn2-c1ccc(F)cc1F	240 to 242
CCc1cc2c(C3=NNC(=O)CC3C)cc(Cl)cn2n1 (stereo unspecified)	172 to 174
CCOC(=O)N1CCN(C(=O)OC2c3ccccc3C(=O)N2c2ccc(Cl)cn2)CC1 (stereo unspecified)	160
COc1ccc(CCN2CCC(N3CCc4ccc(CNC(C)=O)cc43)CC2)cc1	151 to 152
Cc1ccc2c(c1)c(-c1ccc(F)cc1)c(C)n2C1=CCN(CCN2CCNC2=O)CC1	151 to 153
O=C(NNc1ccccc1)c1ccc(F)cc1F	171 to 173
O=c1c2c(c1=O)Nc1c(Cl)cc(C(F)(F)F)cc1N2	335 to 337
Clc1cc(Cl)nc(N2CCCC2)n1	95 to 98
CCCCCCCCCCCCc1ccccc1CC(O)(SCCC(=O)O)C(N)=O (stereo unspecified)	97.5 to 102

SMILES	melting point [°C]
Cc1ccc(-c2c(C(=O)NCc3cc(C(F)(F)F)cc(C(F)(F)F)c3)n(CCC(C)CO)c(=O)c3ncccc23)cc1 (racemic)	129 to 130
COC(=O)COc1cccc2c1c(C(=O)C(N)=O)c(C)n2Cc1ccccc1	202 to 215
CCN(c1ccc([N+](=O)[O-])cc1Cl)S(=O)(=O)c1ccc(C)cc1	118 to 119
CCC(CC)N(Cc1ccc(C(=O)OC)cc1)S(=O)(=O)c1ccc(C)cc1	106 to 108
O=C(c1cncc(Br)c1)N1CCOCC1	49 to 51
CC1CC2C3CCC4CC(O)CCC4(C)C3C(O)CC2(C)C1C1(C)OCCO1 (stereo unspecified)	109 to 111
CC(=O)NC(=S)c1nc2cc(Cl)c(Cl)cc2n1S(=O)(=O)N(C)C	172 to 173
NC1=NN(/C=N/O)C(=O)C1Cc1ccccc1 (stereo unspecified)	105 to 108
COc1ccc(-c2c(-c3ccccc3)c(Sc3ccc4c(c3)CC[C@H]3N(C)C(=O)CC[C@]43C)nc3ccccc23)cc1	239 to 242
CC(C)(C)OC(=O)N1CCCC(C(=O)N2CCC(c3[nH]nc4c3C(=O)c3c(NC(=O)NN5CCOCC5)cccc3-4)CC2)C1 (stereo unspecified)	196 to 198
CCOC(=O)Oc1cc2occ(C=O)c(=O)c2cc1OC(=O)OCC	101 to 102
CCOC(=O)c1cnc(Nc2ccccc2OCC)[nH]c1=O	220 to 221
BrCCCCCCCOc1nc(-c2ccccc2)c(-c2ccccc2)n1-c1ccccc1	97 to 99
CCOC(=O)CCN(CNC(=O)OC(C)(C)C)C(=O)Cn1cc(C)c(=O)[nH]c1=O	174 to 175
CC(=O)N(c1nc2cc3nc(N(C(C)=O)N4CCCCC4C)sc3cc2s1)N1CCCCC1C (stereo unspecified)	242 to 245
COc1ccc(-c2nc(N(C)C)c3c(C)c(C#N)sc3n2)cc1OC	198 to 200
CCCN(C(=O)c1cccc(-c2nc(=O)c3ccccc3s2)n1)C(=O)N(C)C	191 to 192
CCOCc1nc2c(N)nc3ccccc3c2n1CCCc1cc(-c2ccccc2)no1	171 to 172
CC(C)c1cccc(C(C)C)c1NC(=O)NC(Cc1ccccc1)c1ccccc1 (stereo unspecified)	219 to 221
CCn1ncc(N=O)c1N	135 to 136
Cc1nn(CCN)c(C)c1Cc1cc(Cl)cc(Cl)c1	70 to 72
CN(C)Cc1ccc(CSCCNC(=C[N+](=O)[O-])NCCSCc2ccc(CN(C)C)o2)o1	58 to 62

SMILES	melting point [°C]
CC(C)NC(=O)c1cnc(N2CCC(N3C(=O)OCc4ccccc43)CC2)c(Cl)c1	216
CCN(CC)CCOc1ccc(C(O)(CC)c2cc(C)ccc2C)cc1 (stereo unspecified)	89 to 90
COC(=O)c1ccc(CNc2ccc(C)c(Nc3nccc(-c4cccnc4)n3)c2)cc1	158
O=C1c2ccccc2C(=O)c2oc(-c3cccs3)nc21	> 260
N#CC(=NNCc1c(Cl)cc(C(F)(F)F)cc1Cl)c1ccc(C#N)cc1	92 to 93
CCCCCOc1ccc(CC(C)C(=O)Oc2ccc(-c3ccc(CCC)cc3)cc2)cc1 (stereo unspecified)	84 to 84.5
COc1ccc(S(=O)(=O)Nc2cccnc2Nc2ccc(C)cc2)cc1	188 to 189
CCOC(=O)c1ccc2nc(NC)[nH]c2c1	247 to 249
CCOC(=O)C(S)(C#N)C1=NC(C)Cc2cc(OC)c(OC)cc21 (stereo unspecified)	128 to 130
CC(=O)OCC1OC(c2ccc(F)c(Cc3cccs3)c2)C(OC(C)=O)C(OC(C)=O)C1OC(C)=O (stereo unspecified)	119 to 121
COc1ccccc1NC(=O)Nc1nc(Oc2ccc3ccccc3c2)nc(N(CCC(=O)O)Cc2cccc3ccccc23)n1	230 to 233
COC(=O)Nc1coc2cc(NS(C)(=O)=O)c(Oc3ccccc3)cc2c1=O	233 to 235
CCCCn1cncc1C(O)(c1ccc(Cl)cc1)c1ccc2c(c1)c(-c1cccc(Cl)c1)cc(=O)n2C (stereo unspecified)	175
CC(=O)Oc1ccc2c(c1)C(C)c1cc(OC(C)=O)ccc1-2	139 to 140
O=C(O)C=C(C(=O)c1ccc(Cl)c(Cl)c1)c1ccccc1	101 to 103
COc1ccc(C(CC(=O)O)N2Cc3ccccc3C2=O)cc1OC (stereo unspecified)	146 to 148
CC1(C)OC(=O)Nc2ccc(-c3cccc(CC#N)n3)cc21	210 to 212
COc1ccc(-c2c(Cl)ncnc2Cl)cc1	95 to 96
CC(Nc1cc(Br)ccc1[N+](=O)[O-])C(=O)O (stereo unspecified)	183 to 187
Nc1cc(NC(=O)c2cc3cc(F)ccc3n2Cc2cccc(F)c2)ccn1	217 to 218
Cn1nc(-c2sc(C(=O)NCc3ccccn3)nc2-c2ccccc2)ccc1=O	189 to 190
CCCCc1oc2ccccc2c1-c1ncc(-c2ccc3cc(OCc4ccc(C(=O)O)cc4C(=O)O)ccc3c2)o1	285 to 287

From a melting point compilation (Tetko et al.; mined from patent text by program, amines drawn as free bases though some values may be those of a salt)
